# Literature values in patent publication US20050267091A1 (priority 2004, published 2005).
# Tests used:
# [1] = not given; remark: listed apart in the source
# [2] = in vivo
compound,measurement,setting,value
"COCc1c(C(C)C)nc(C(C)C)c(/C=C/[C@@H](O)C[C@@H](O)CC(=O)O)c1-c1ccc(F)cc1 [Baycol®, cervastatin]",deaths linked to the drug,market withdrawal August 2001,31 deaths
"CC(C)c1nc(N(C)S(C)(=O)=O)nc(-c2ccc(F)cc2)c1/C=C/[C@@H](O)C[C@@H](O)CC(=O)O [Crestor®, rosuvastatin]",cases of serious side effects,"cited by consumer advocacy group, March 2004",16 cases
O=C(O)c1cccnc1 [Niacin],patients affected by flushing (redness) of the face and neck,[1]; most common side effect,more than three quarters of patients
same,patients who discontinue because of adverse effects,[1]; patients treated with standard niacin,more than 40%
same,increase of blood levels of HDL cholesterol,[2],up to 35%
same,reduction of total cholesterol,[2],up to 15%
same,reduction of triglyceride levels,[2],up to 30%
